The text below walks through data of patent publication US20140212981A1, “METHODS AND SYSTEMS FOR DETERMINING THE AMOUNT OF THIOPURINE METABOLITES IN A SAMPLE” (Laboratory Corporation of America Holdings, priority 2012, published 2014).

For data set [1] the following is noted: cited from earlier work; for Therapeutic Range: metabolite level in red blood cells of subjects on thiopurine treatment, exemplary therapeutic levels.
Data set [2] is described as follows: Acid-promoted conversion (hydrolysis) as a function of time. The note with it: FIG. 2C. It counts as physicochemical. The text has this:
The method comprises converting the one or more 6-thioguanine nucleotide compounds to 6-thioguanine or a 6-thioguanine hydrolysis product. The converting can be carried out in any manner known to those of skill in the art. In some embodiments, the converting comprises contacting the one or more 6-thioguanine nucleotide compounds with a sulfur-containing reducing agent to yield one or more reduced 6-thioguanine nucleotide compounds. Any suitable sulfur-containing reducing agent can be used. In some embodiments, the sulfur-containing reducing agent is dithioerythritol. In some such embodiments, the method comprises contacting the one or more reduced 6-thioguanine nucleotide compounds with an acidic hydrolyzing agent. Any suitable acidic hydrolyzing agent can be used. In some embodiments, the acidic hydrolyzing agent is perchloric acid, nitric acid, sulfuric acid, or a combination thereof. In some such embodiments, the acidic hydrolyzing agent is perchloric acid.
In some embodiments the hydrolysis of 6-methylmercaptopurine nucleotide compounds proceeds according to Scheme 2 below. […] The 6-methylmercaptopurine is readily hydrolyzed in the presence of acid to form a 6-methylmercaptopurine hydrolysis product comprising 4-amino-5-(methylthio) carbonyl imidazole. […]

Take “6-methylmercaptopurine nucleotides [6-MMPNs]”: the “Therapeutic Range” value in data set [1] is less than 5700 pmol/8 × 10^8RBC. Further, in data set [1] (metabolite level in red blood cells, levels in this range require modulation of therapy), the “Alert Values” is more than 5700 pmol/8 × 10^8RBC. As to 6-thioguanine nucleotides [6-TGNs], in data set [1], the “Therapeutic Range” value is listed as 235 - 450 pmol/8 × 10^8RBC.

For `CSc1ncnc2nc[nH]c12` [6-MMP, 6-methylmercaptopurine], the “Time for acid-promoted conversion to hydrolysis product” value in data set [2] (6-MMP to 6-MMP*, perchloric acid hydrolysis) is on record as “less than 140 minutes”. In the case of `[2H]C([2H])([2H])Sc1ncnc2[nH]cnc12` [D3-6-MMP], the “Rate of acid-promoted conversion relative to unlabeled 6-MMP” value in data set [2] (D3-6-MMP to D3-6-MMP*) is on record as “same rate as unlabeled 6-MMP”.
